What follows are compounds tested against DNA-PK (Homo sapiens, UniProt P78527) (assay: DNA-PK Inhibition Assay (standard radiometric kinase assay, 33P-ATP, peptide substrate)). Conditions: radiometric assay, approximately 6 nM DNA-PK, 100 μM ATP, 45 min; fit to competitive tight-binding inhibition; read-out: Ki for the inhibition of DNA-PK.
Assay type: biochemical
Procedure: Compounds were screened for their ability to inhibit DNA-PK kinase using a standard radiometric assay. Briefly, in this kinase assay the transfer of the terminal ^33P-phosphate in ^33P-ATP to a peptide substrate is interrogated. The assay was carried out in 384-well plates to a final volume of 50 μL per well containing approximately 6 nM DNA-PK, 50 mM HEPES (pH 7.5), 10 mM MgCl2, 25 mM NaCl, 0.01% BSA, 1 mM DTT, 10 μg/mL sheared double-stranded DNA (obtained from Sigma), 0.8 mg/mL DNA-PK peptide (Glu-Pro-Pro-Leu-Ser-Gln-Glu-Ala-Phe-Ala-Asp-Leu-Trp-Lys-Lys-Lys, obtained from American Peptide), and 100 μM ATP. Accordingly, compounds of the invention were dissolved in DMSO to make 10 mM initial stock solutions. Serial dilutions in DMSO were then made to obtain the final solutions for the assay. A 0.75 μL aliquot of DMSO or inhibitor in DMSO was added to each well, followed by the addition of ATP substrate solution containing ^33P-ATP (obtained from Perkin Elmer). The reaction was started by the addition of DNA-PK, peptide and ds-DNA. After 45 min, the reaction was quenched with 25 μL of 5% phosphoric acid. The reaction mixture was transferred to MultiScreen HTS 384-well PH plates (obtained from Millipore), allowed to bind for one hour, and washed three times with 1% phosphoric acid. Following the addition of 50 μL of Ultima Gold™ high efficiency scintillant (obtained from Perkin Elmer), the samples were counted in a Packard TopCount NXT Microplate Scintillation and Luminescence Counter (Packard BioScience). The Ki values were calculated using Microsoft Excel Solver macros to fit the data to the kinetic model for competitive tight-binding inhibition.

Ki, < 0.1 µM:
c1cc(N2CCOCC2)nc(N[C@H]2CC[C@@H](Oc3cc(N4CCOCC4)cc4nccnc34)CC2)n1 [Compound 548]
Cc1cnc(C)c(N[C@H]2CC[C@@H](Oc3cc(N4CCOCC4)cc4nccnc34)CC2)c1 [Compound 441]
c1cc(N[C@H]2CC[C@@H](Oc3cc(N4CCOCC4)cc4nccnc34)CC2)cnn1 [Compound 354]
CC(C)Oc1cc(N[C@H]2CC[C@@H](Oc3cc(N4CCOCC4)cc4nccnc34)CC2)ccn1 [Compound 349]
CN(C)CCc1cnc(N[C@H]2CC[C@@H](Oc3cc(N4CCOCC4)cc4nccnc34)CC2)nc1 [Compound 431]
c1cc(N[C@H]2CC[C@@H](Oc3cc(N4CCOCC4)cc4nccnc34)CC2)nc(CN2CCOCC2)n1 [Compound 503]
Cc1nccc(N(C)[C@H]2CC[C@@H](Oc3cc(N4CCOCC4)cc4nccnc34)CC2)n1 [Compound 399]
CC(C)c1cc(N[C@H]2CC[C@@H](Oc3cc(N4CCOCC4)cc4nccnc34)CC2)ncn1 [Compound 652]
Cc1nc(N[C@H]2CC[C@@H](Oc3cc(N4CCOCC4)cc4nccnc34)CC2)cc(C2CC2)n1 [Compound 636]
Cc1cncc(N[C@H]2CC[C@@H](Oc3cc(N4CCOCC4)cc4nccnc34)CC2)c1 [Compound 465]
CN(C)CCOc1ncnc(N[C@H]2CC[C@@H](Oc3cc(N4CCOCC4)cc4nccnc34)CC2)c1F [Compound 362]
CN(C)CCNC(=O)c1cnc(N[C@H]2CC[C@@H](Oc3cc(N4CCOCC4)cc4nccnc34)CC2)nc1 [Compound 328]
CN1CCc2nc(N[C@H]3CC[C@@H](Oc4cc(N5CCOCC5)cc5nccnc45)CC3)ncc2C1 [Compound 632]
c1cc(-c2cnc(N[C@H]3CC[C@@H](Oc4cc(N5CCOCC5)cc5nccnc45)CC3)nc2)[nH]n1 [Compound 462]
OCCc1cnc(N[C@H]2CC[C@@H](Oc3cc(N4CCOCC4)cc4nccnc34)CC2)nc1 [Compound 481]
CC(C)(C)OC(=O)N1CCC(c2ccnc(N[C@H]3CC[C@@H](Oc4cc(N5CCOCC5)cc5nccnc45)CC3)n2)CC1 [Compound 557]
COCc1cc(N[C@H]2CC[C@@H](Oc3cc(N4CC5CC(C4)O5)cc4nccnc34)CC2)nc(C)n1 [Compound 309]
Cc1ncc(N[C@H]2CC[C@@H](Oc3cc(N4CCOCC4)cc4nccnc34)CC2)cn1 [Compound 450]
CN1CC[C@H](Nc2ncnc(N[C@H]3CC[C@@H](Oc4cc(N5CCOCC5)cc5nccnc45)CC3)c2F)C1 [Compound 343]
O=C(N[C@H]1CC[C@@H](Oc2cc(N3CCOCC3)cc3nccnc23)CC1)N1CCCC1 [Compound 415]
COc1cncc(N[C@H]2CC[C@@H](Oc3cc(N4CCOCC4)cc4nccnc34)CC2)c1 [Compound 446]
c1nc2c(c(N[C@H]3CC[C@@H](Oc4cc(N5CCOCC5)cc5nccnc45)CC3)n1)CCN2 [Compound 370]
Cn1ccc(N[C@H]2CC[C@@H](Oc3cc(N4CCOCC4)cc4nccnc34)CC2)cc1=O [Compound 311]
CN(C)C(=O)c1cc(N[C@H]2CC[C@@H](Oc3cc(N4CCOCC4)cc4nccnc34)CC2)ncn1 [Compound 361]
Clc1ccnc(N[C@H]2CC[C@@H](Oc3cc(N4CCOCC4)cc4nccnc34)CC2)n1 [Compound 532]
c1cnc2c(O[C@H]3CC[C@@H](Nc4ccc(OCCN5CCCCC5)cn4)CC3)cc(N3CCOCC3)cc2n1 [Compound 640]
Cc1nccc(N[C@H]2CC[C@@H](Oc3cc(N4CCOCC4)cc4nonc34)CC2)n1 [Compound 316]
COc1ncc(F)c(N[C@H]2CC[C@@H](Oc3cc(N4CCOCC4)cc4nccnc34)CC2)n1 [Compound 396]
COCCOc1ccnc(N[C@H]2CC[C@@H](Oc3cc(N4CCOCC4)cc4nccnc34)CC2)n1 [Compound 558]
c1cnc2c(O[C@H]3CC[C@@H](Nc4ncc(OCCN5CCCCC5)cn4)CC3)cc(N3CCOCC3)cc2n1 [Compound 613]
CN1CCC(c2cnc(N[C@H]3CC[C@@H](Oc4cc(N5CCOCC5)cc5nccnc45)CC3)nc2)C1 (stereo partly shown) [Compound 568]
Fc1nc(N[C@H]2CC[C@@H](Oc3cc(N4CCOCC4)cc4nccnc34)CC2)c2nc[nH]c2n1 [Compound 521]
O=C(N[C@H]1CC[C@@H](Oc2cc(N3CCOCC3)cc3nccnc23)CC1)N1CCCCC1 [Compound 416]
CNC(=O)c1ccnc(N[C@H]2CC[C@@H](Oc3cc(N4CCOCC4)cc4nccnc34)CC2)n1 [Compound 350]
O=C1NCCc2nc(N[C@H]3CC[C@@H](Oc4cc(N5CCOCC5)cc5nccnc45)CC3)sc21 [Compound 322]
CN(C)Cc1ccnc(N[C@H]2CC[C@@H](Oc3cc(N4CCOCC4)cc4nccnc34)CC2)n1 [Compound 483]
Cn1nnc(-c2cnc(N[C@H]3CC[C@@H](Oc4cc(N5CCOCC5)cc5nccnc45)CC3)nc2)n1 [Compound 458]
CCc1cc(N[C@H]2CC[C@@H](Oc3cc(N4CCOCC4)cc4nccnc34)CC2)nc(C)n1 [Compound 597]
CN1CCc2cnc(N[C@H]3CC[C@@H](Oc4cc(N5CCOCC5)cc5nccnc45)CC3)nc2C1 [Compound 556]
CN(C)C(=O)c1ccnc(N[C@H]2CC[C@@H](Oc3cc(N4CCOCC4)cc4nccnc34)CC2)n1 [Compound 351]
OCc1cnc2cc(N3CCOCC3)cc(O[C@H]3CC[C@@H](Nc4ncccn4)CC3)c2n1 [Compound 617]
CC(C)(C)OC(=O)c1cc(N[C@H]2CC[C@@H](Oc3cc(N4CCOCC4)cc4nccnc34)CC2)ccc1F [Compound 421]
CN(C)CCOc1ccc(N[C@H]2CC[C@@H](Oc3cc(N4CCOCC4)cc4nccnc34)CC2)nc1 [Compound 654]
COC(=O)[C@H](CC(C)C)NC(=O)N[C@H]1CC[C@@H](Oc2cc(N3CCOCC3)cc3nccnc23)CC1 [Compound 391]
c1nc(N[C@H]2CC[C@@H](Oc3cc(N4CCOCC4)cc4nccnc34)CC2)cc(-c2nnco2)n1 [Compound 566]
Cn1cnc2c(N[C@H]3CC[C@@H](Oc4cc(N5CCOCC5)cc5nccnc45)CC3)ncnc21 [Compound 546]
FC(F)Oc1ccc(N[C@H]2CC[C@@H](Oc3cc(N4CCOCC4)cc4nccnc34)CC2)nc1 [Compound 572]
c1cnc2c(O[C@H]3CC[C@@H](Nc4ccc(OCCN5CCOCC5)cn4)CC3)cc(N3CCOCC3)cc2n1 [Compound 639]
c1cnc2c(O[C@H]3CC[C@@H](Nc4ccc(C5CCC5)nn4)CC3)cc(N3CCOCC3)cc2n1 [Compound 601]
Cc1nc(C)c(C)c(N[C@H]2CC[C@@H](Oc3cc(N4CCOCC4)cc4nccnc34)CC2)n1 [Compound 436]
c1cnc2c(O[C@H]3CC[C@@H](Nc4ccc(OC5COC5)cn4)CC3)cc(N3CCOCC3)cc2n1 [Compound 638]
c1cnc2c(O[C@H]3CC[C@@H](Nc4cc5ncnn5cn4)CC3)cc(N3CCOCC3)cc2n1 [Compound 510]
